Measured values published in PMC9304322, “Targeting retinoic acid receptor alpha-corepressor interaction activates chaperone-mediated autophagy and protects against retinal degeneration” (Nature Communications, 2022).
Values joined by “and” are separate entries in the source; they are usually repeats but may differ in a detail not shown here. Equal entries are not always repeated.

Assays:
[1] = system: CMA network components in NIH3T3 cells; test: qPCR of CMA network components and CMA activation score; type: cell-based, mouse; set-up: LAMP2A mRNA level / HSP90AB1 mRNA level / HSP40 mRNA level / RAC1 mRNA level / AKT1 mRNA level / AKT2 mRNA level / CTSA mRNA level / NFATC1 mRNA level / HSC70 mRNA level / NCOR1 mRNA level / NFE2L2 mRNA level / RAB11A mRNA level / RARa mRNA level / HSP90AA1 mRNA level / EEF1A1 mRNA level / RICTOR mRNA level: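 fold of untreated cells after 20 µM for 24 h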; key to CMA activation score: weighted (LAMP-2A ×2), directed (±1) average of CMA network expression; conditions: individual replicate values;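 on AKT1 mRNA level: fold of untreated cells after 20 µM for 24 h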;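 on AKT2 mRNA level: fold of untreated cells after 20 µM for 24 h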;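 on CTSA mRNA level: fold of untreated cells after 20 µM for 24 h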;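 on HSC70 mRNA level: fold of untreated cells after 20 µM for 24 h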;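 on HSP40 mRNA level: fold of untreated cells after 20 µM for 24 h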;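 on HSP90AA1 mRNA level: fold of untreated cells after 20 µM for 24 h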;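 on HSP90AB1 mRNA level: fold of untreated cells after 20 µM for 24 h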;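 on LAMP2A mRNA level: fold of untreated cells after 20 µM for 24 h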;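 on NCOR1 mRNA level: fold of untreated cells after 20 µM for 24 h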;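 on NFATC1 mRNA level: fold of untreated cells after 20 µM for 24 h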;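 on NFE2L2 mRNA level: fold of untreated cells after 20 µM for 24 h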;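 on PHLPP1 mRNA level: fold of untreated cells after 20 µM for 24 h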;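 on RAB11A mRNA level: fold of untreated cells after 20 µM for 24 h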;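 on RAC1 mRNA level: fold of untreated cells after 20 µM for 24 h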;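 on RARa mRNA level: fold of untreated cells after 20 µM for 24 h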
Method: RNA was extracted from individual retinas or tissue sections (brain, liver). Total RNA from retinas was extracted using TRIzol Reagent (Invitrogen, # 15596-018), and reverse transcription was performed using the High-Capacity cDNA Reverse Transcription Kit (Applied Biosystems, # 4374966) according to the manufacturer’s instructions. Quantitative real-time PCR was performed in a Light Cycler 480 Instrument (Roche) with Taqman LightCycler 480 probes Master Mix (Roche, #4887301001) using Taqman assays (Life Technologies). For cells in culture, RNA was extracted using RNeasy Plus Mini Kit (Qiagen, #74034), and reverse transcription was performed using Superscript III (Invitrogen, #18080051). Quantitative RT-PCR analysis were performed using Power SYBR Green PCR Master Mix (Applied Biosystems, #4368708) on a StepOne Plus Real-Time PCR System (Applied Biosystems). Mm01184405_m1 probe (Thermofisher) was used for rhodopsin and the sequence of all the other probes used for qPCR is included in Supplementary Table 2.
CMA index[14] was calculated using data set from[23]–[25]. Briefly, each element of the CMA network[13] has attributed a weight. As LAMP-2A is the rate-limiting component of CMA, it was given a weight of 2. Every other element received a weight of 1. Then, every element was attributed direction score that is +1 or −1 based on the known effect of a given element on CMA activity. The score was then calculated as the weighted/ directed average of expression counts of every element of the CMA network.

[2] = system: NIH3T3; test: Intracellular proteolysis of long half-life proteins; type: cell-based, mouse
Method: Confluent cells were labelled with [^3H]leucine (2μCi/ml) (NEN-PerkinElmer Life Sciences) for 48 h and then extensively washed and maintained in medium with an excess of unlabeled leucine. Proteolysis was calculated from aliquots of the medium taken at different times and precipitated in trichloroacetic acid, as the amount of acid-precipitable radioactivity transformed to acid-soluble radioactivity at each time. Where indicated cell were treated during the chase with […] leupeptin (Sigma, #108975) and […] NH4Cl (to determine lysosomal degradation) or with 100 μm MRT 68921 dihydrochloride (Tocris, #5780) (to determine macroautophagy degradation).

[3] = system: NIH3T3 cells stably expressing the mCherry-GFP-LC3 reporter; test: Macroautophagy activity, mCherry-GFP-LC3 reporter; type: cell-based, mouse
Method: Cells were transduced with a lentiviral vector expressing mCherry-GFP-LC3[35], fixed and flux determined as the conversion of dual fluorescence puncta (autophagosomes) into only red fluorescent puncta (autolysosomes). Flux was also measured by immunoblot for LC3 in cells incubated for 6 h with 20 mM NH4Cl/100 μM leupeptin, by discounting the intensity of LC3 in non-treated cells from that in cells treated with the inhibitors.

[4] = system: primary human fibroblast expressing the KFERQ-PS-Dendra reporter; test: CMA activity, KFERQ-PS-Dendra reporter in primary human fibroblasts; type: cell-based; set-up: key to CMA activity, mean (Fig. S2c): puncta per cell
Method: Cells were transduced with lentivirus carrying the KFERQ-PS-Dendra reporter as before. Cells were photoactivated by exposure to a 3.5 mA (current constant) light emitting diode (LED: Norlux, 405 nm) for 3 min and then plated in glass-bottom 96 well plates. At the desired times, cells were fixed with 4% PFA and imaged using high-content microscopy (Operetta system, Perkin Elmer). Images were quantified using the manufacturer’s software in a minimum of 1,200 cells in 9 independent fields per well. […] This was particularly important in the case of primary human cells where the efficiency of transduction was ~65%. To avoid confounding effects for drug-induced changes in cell volume or adherence to the plate that could bring a fraction of the cells per field outside of focus, we set a threshold to count only […] that have at least 1/10 of the average number of […] detected in the untreated wells for each cell type (3–4 puncta/cell in the case of NIH3T3 and N2a cells and 5 puncta/cell in primary human fibroblasts).

[5] = Fig. 2d (left), one sample t test
[6] = c0 = 2 (axis unlabelled; ANOVA calls row factor Time)

SMILES: Cc1ccc(C2=Nc3ccc(Cl)cc3OC2)cc1 [AR7, reference compound]
- AKT1 mRNA level [1, 5]: 1.38 and 0.89 and 1.44 and 0.86 and 1.06 and 1.51 and 1.42
- AKT2 mRNA level [1, 5]: 1.44 and 0.97 and 1.15 and 0.87 and 1.19 and 1.60 and 1.34
- CTSA mRNA level [1, 5]: 1.25 and 1.34 and 1.07 and 0.82 and 1.13 and 1.21 and 1.33
- EEF1A1 mRNA level [1, 5]: 1.17 and 1.49 and 1.26 and 1.78 and 0.79 and 1.54
- HSC70 mRNA level [1, 5]: 1.32 and 1.34 and 1.36 and 1.12 and 1.37 and 1.41
- HSP40 mRNA level [1, 5]: 0.98 and 1.05 and 1.10 and 0.85 and 0.99 and 0.72 and 1.06
- HSP90AA1 mRNA level [1, 5]: 1.28 and 0.87 and 0.85 and 0.56 and 0.80 and 0.78 and 0.86
- HSP90AB1 mRNA level [1, 5]: 0.93 and 0.89 and 0.92 and 0.63 and 0.94 and 0.80
- LAMP2A mRNA level [1, 5]: 1.15 and 1.53 and 1.46 and 1.28 and 1.31 and 1.13 and 1.27
- NCOR1 mRNA level [1, 5]: 1.16 and 1.11 and 1.26 and 0.79 and 0.85 and 0.87 and 1.01
- NFATC1 mRNA level [1, 5]: 1.04 and 0.72 and 1.34 and 0.83 and 1.03 and 1.25 and 1.28
- NFE2L2 mRNA level [1, 5]: 1.81 and 0.87 and 0.79 and 0.50 and 0.68 and 0.86 and 1.01
- PHLPP1 mRNA level [1, 5]: 1.42 and 1.17 and 1.27 and 2.72 and 1.10 and 1.18 and 1.28
- RAB11A mRNA level [1, 5]: 1.10 and 1.22 and 1.00 and 0.72 and 0.93 and 1.01
- RAC1 mRNA level [1, 5]: 1.21 and 1.55 and 1.26 and 1.08 and 1.31 and 1.54 and 1.42
- RARa mRNA level [1, 5]: 0.99 and 0.33 and 1.02 and 0.95 and 0.90 and 0.86
- RICTOR mRNA level [1, 5]: 0.52 and 1.27 and 0.85 and 0.95 and 1.43
- CMA activation score ([1]; Fig. 2d (right)): -0.03086 and 0.1313 and 0.07179 and -0.1523
- duration of the increase in degradation of long-lived proteins ([2]; NIH3T3, 10 μM): sustained only for the first 12 h
- Lysosomal proteolysis, Mean (Fig. S3c) ([2]; Time 6): 3.18
- Lysosomal proteolysis, Mean (Fig. S3c) ([2]; Time 12): 5.83
- effect on macroautophagy ([3]; NIH3T3, MRT-sensitive proteolysis, LC3-II flux, mCherry-GFP-LC3 reporter): did not have the inhibitory effect on macroautophagy
- APG (Fig. S3e) [3, 6]: 0.9242
- AUT (Fig. S3e) [3, 6]: 2.505
- AV (Fig. S3e) [3, 6]: 3.429
- APG (Fig. S3e) ([3]; c0 = 5 (axis unlabelled)): 0.8222
- AUT (Fig. S3e) ([3]; c0 = 5 (axis unlabelled)): 2.321
- AV (Fig. S3e) ([3]; c0 = 5 (axis unlabelled)): 3.1431
- APG (Fig. S3e) ([3]; c0 = 10 (axis unlabelled)): 0.7738
- AUT (Fig. S3e) ([3]; c0 = 10 (axis unlabelled)): 2.246
- AV (Fig. S3e) ([3]; c0 = 10 (axis unlabelled)): 3.0194
- APG (Fig. S3e) ([3]; c0 = 15 (axis unlabelled)): 0.7216
- AUT (Fig. S3e) ([3]; c0 = 15 (axis unlabelled)): 2.244
- AV (Fig. S3e) ([3]; c0 = 15 (axis unlabelled)): 2.965
- APG (Fig. S3e) ([3]; c0 = 20 (axis unlabelled)): 0.9029
- AUT (Fig. S3e) ([3]; c0 = 20 (axis unlabelled)): 2.059
- AV (Fig. S3e) ([3]; c0 = 20 (axis unlabelled)): 2.962
- APG (Fig. S3e) ([3]; c0 = 25 (axis unlabelled)): 0.9112
- AUT (Fig. S3e) ([3]; c0 = 25 (axis unlabelled)): 2.774
- AV (Fig. S3e) ([3]; c0 = 25 (axis unlabelled)): 3.685
- APG (Fig. S3e) ([3]; c0 = 30 (axis unlabelled)): 0.9867
- AUT (Fig. S3e) ([3]; c0 = 30 (axis unlabelled)): 2.8387
- AV (Fig. S3e) ([3]; c0 = 30 (axis unlabelled)): 3.825
- APG (Fig. S3e) ([3]; c0 = 40 (axis unlabelled)): 1.111
- AUT (Fig. S3e) ([3]; c0 = 40 (axis unlabelled)): 2.723
- AV (Fig. S3e) ([3]; c0 = 40 (axis unlabelled)): 3.834
- APG (Fig. S3e) ([3]; c0 = 50 (axis unlabelled)): 0.7488
- AUT (Fig. S3e) ([3]; c0 = 50 (axis unlabelled)): 3.18
- AV (Fig. S3e) ([3]; c0 = 50 (axis unlabelled)): 3.929
- CMA activity, mean (Fig. S2c) ([4]; concentration 0.02): 24.0456
- CMA activity, mean (Fig. S2c) ([4]; concentration 0.2): 28.2677
- CMA activity, mean (Fig. S2c) ([4]; concentration 2): 18.5469
- CMA activation in human cells ([4]; in words): very discrete
